Read-outs that look alike come from different tables or passages of the source.
How the values were obtained:
[1] = target: T1, CDC25c (fusion with glutathione-S-transferase) (Homo sapiens, UniProt P30307); assay: Inhibition constant determination, selectivity panel: cdc25c (pNPP hydrolysis); type: biochemical; details: competitive Ki; pNPP substrate; read-out: Phosphatase Inhibition Constants (Kic) Cdc25c
T1 sequence (P30307 1-473): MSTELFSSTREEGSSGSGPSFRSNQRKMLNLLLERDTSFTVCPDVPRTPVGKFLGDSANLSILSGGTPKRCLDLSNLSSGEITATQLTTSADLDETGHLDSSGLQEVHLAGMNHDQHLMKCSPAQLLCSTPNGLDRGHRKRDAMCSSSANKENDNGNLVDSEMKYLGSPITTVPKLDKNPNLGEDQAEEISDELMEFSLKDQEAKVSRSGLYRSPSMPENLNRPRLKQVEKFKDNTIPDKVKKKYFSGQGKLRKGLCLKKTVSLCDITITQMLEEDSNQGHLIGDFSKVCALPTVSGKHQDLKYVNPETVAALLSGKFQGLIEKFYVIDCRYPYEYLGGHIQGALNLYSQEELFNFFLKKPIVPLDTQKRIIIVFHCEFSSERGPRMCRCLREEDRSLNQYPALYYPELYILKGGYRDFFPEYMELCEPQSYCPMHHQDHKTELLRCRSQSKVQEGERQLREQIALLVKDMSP
Description: CDC25c was expressed as a fusion with glutathione-S— transferase (aka GST) in E. coli. Cells were lysed and debris removed as described for SHP-2, except lysis was in PBS (GibcoBRL Life Technologies, Grand Island, N.Y., Stock # 70011-044, diluted 10-fold). The soluble proteins were chromatographed on Glutathione-Sepharose FF (Amersham Pharmacia Biotech) and eluted with 10 mM reduced glutathione in 25 mM TRIS-HCl, pH 7.5, 150 mM NaCl. Fractions were assayed, pooled and stored as decribed for PTP1B.
(§1) The Kic and Kiu values are calculated as described for PTP1B. The assays were performed as described for PTP-1B except for the following changes. All the phosphatases except PP2B use the same 2× assay buffer as PTP1B. PP2B uses a 2× assay buffer which contains 100 mM TRIS-HCl pH 8.6, 40 mM MgCl2, 0.2 mM CaCl2, 6 mM DTT, 0.2 mg/mL BSA. The concentrations of pNPP present in 40 ul were the same for TCPTP, CD45, LAR and PTP1B. For PP2B they were 24 mM, 60 mM, 150 mM, and 375 mM; for cdc25C they were 16 mM, 40 mM, 100 mM, and 250 mM; for SHP-2 they were 6.4 mM, 16 mM, 40 mM, and 100 mM.

CD45 = target: T2, CD45 (Homo sapiens, UniProt P08575); assay: Inhibition constant determination, selectivity panel: CD45 (pNPP hydrolysis); type: biochemical; details: competitive Ki; pNPP substrate; read-out: Phosphatase Inhibition Constants (Kic) CD45
T2 construct: purchased Biomol Research Laboratories, Inc. SE-135
T2 sequence (P08575 609-1306 limits assumed): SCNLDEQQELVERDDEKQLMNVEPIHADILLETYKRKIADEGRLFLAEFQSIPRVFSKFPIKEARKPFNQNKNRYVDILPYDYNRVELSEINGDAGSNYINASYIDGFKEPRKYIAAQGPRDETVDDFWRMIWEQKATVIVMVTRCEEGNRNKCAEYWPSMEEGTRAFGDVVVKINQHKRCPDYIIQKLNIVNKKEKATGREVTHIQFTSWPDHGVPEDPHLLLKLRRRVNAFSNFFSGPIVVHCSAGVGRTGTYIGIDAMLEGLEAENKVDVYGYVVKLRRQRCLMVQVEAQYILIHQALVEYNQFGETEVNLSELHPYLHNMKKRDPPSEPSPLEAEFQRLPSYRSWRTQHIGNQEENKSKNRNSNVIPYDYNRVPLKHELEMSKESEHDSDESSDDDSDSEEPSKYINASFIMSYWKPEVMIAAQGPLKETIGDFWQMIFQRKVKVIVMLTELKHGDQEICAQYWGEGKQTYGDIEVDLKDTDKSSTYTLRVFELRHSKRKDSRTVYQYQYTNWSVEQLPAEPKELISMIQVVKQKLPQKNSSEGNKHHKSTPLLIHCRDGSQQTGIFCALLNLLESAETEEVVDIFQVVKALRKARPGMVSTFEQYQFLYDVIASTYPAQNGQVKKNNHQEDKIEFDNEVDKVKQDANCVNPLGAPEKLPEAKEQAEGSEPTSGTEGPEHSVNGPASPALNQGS
Description: CD45 was obtained commercially (catalog#SE-135 Biomol Research Laboratories, Inc. 5120 Butler Pike, Plymouth Meeting, Pa.).
as §1

LAR = target: T3, LAR (Homo sapiens, UniProt P10586); assay: Inhibition constant determination, selectivity panel: LAR (pNPP hydrolysis); type: biochemical; details: competitive Ki; pNPP substrate; read-out: Phosphatase Inhibition Constants (Kic) LAR
T3 construct: purchased New England Biolabs P0750L
T3 sequence (P10586 1301-1639 limits assumed): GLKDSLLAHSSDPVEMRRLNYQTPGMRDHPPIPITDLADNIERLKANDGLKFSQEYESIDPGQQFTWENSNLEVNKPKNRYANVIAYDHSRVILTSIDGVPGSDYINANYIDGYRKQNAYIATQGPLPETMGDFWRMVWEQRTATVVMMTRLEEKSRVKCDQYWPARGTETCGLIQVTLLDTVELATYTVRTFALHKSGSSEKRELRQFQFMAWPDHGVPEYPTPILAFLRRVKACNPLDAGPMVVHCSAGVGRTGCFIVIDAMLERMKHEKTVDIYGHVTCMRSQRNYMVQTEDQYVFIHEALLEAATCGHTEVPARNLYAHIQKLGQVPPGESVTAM

Bovine PP2B = target: T4, Bovine PP2B (Bos taurus, UniProt P48452); assay: Inhibition constant determination, selectivity panel: PP2B (pNPP hydrolysis); type: biochemical; details: competitive Ki; pNPP substrate; read-out: Phosphatase Inhibition Constants (Kic) PP2B
T4 construct: purchased Sigma C1907
T4 sequence (P63099 2-170 partner limits assumed, other chains not shown): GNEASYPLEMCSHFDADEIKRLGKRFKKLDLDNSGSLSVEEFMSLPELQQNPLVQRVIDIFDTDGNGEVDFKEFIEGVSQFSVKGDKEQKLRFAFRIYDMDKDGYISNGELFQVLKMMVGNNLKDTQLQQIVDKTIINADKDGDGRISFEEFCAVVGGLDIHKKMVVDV
Description: Bovine PP2B was obtained commercially (C1907 Sigma, St. Louis, Mo.).
as §1

TCPTP [2] = target: T5, TCPTP (Homo sapiens, UniProt P17706); assay: biochemical
T5 sequence (P17706 1-283): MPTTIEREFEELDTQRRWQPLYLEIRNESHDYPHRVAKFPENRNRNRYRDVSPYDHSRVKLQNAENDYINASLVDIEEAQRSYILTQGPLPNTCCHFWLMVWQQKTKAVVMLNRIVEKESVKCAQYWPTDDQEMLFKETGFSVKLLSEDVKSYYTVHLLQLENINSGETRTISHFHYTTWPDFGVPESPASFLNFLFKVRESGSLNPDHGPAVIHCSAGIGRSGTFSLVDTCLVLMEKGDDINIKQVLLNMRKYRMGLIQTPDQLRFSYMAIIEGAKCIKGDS

SHP-2 (full length) = target: T6, SHP-2 (full length) (Homo sapiens, UniProt Q06124); assay: Inhibition constant determination, selectivity panel: SHP-2 (pNPP hydrolysis); type: biochemical; details: competitive Ki; pNPP substrate; read-out: Phosphatase Inhibition Constants (Kic) SHP-2
T6 sequence (Q06124 1-593): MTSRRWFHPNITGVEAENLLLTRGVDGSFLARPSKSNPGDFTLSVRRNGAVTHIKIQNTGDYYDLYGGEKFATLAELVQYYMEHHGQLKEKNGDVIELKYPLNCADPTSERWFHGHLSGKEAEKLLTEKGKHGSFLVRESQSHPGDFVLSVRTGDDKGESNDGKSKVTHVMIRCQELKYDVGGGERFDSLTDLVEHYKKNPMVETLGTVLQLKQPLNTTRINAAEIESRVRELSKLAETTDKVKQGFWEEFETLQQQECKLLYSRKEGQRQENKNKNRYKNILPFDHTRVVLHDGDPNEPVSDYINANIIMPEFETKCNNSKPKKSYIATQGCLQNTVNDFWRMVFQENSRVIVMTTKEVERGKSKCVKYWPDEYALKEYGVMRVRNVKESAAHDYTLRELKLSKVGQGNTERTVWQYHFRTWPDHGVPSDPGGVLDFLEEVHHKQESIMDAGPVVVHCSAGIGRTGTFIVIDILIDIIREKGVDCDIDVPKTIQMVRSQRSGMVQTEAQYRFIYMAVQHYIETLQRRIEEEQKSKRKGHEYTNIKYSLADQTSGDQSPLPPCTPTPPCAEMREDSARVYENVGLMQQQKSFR
Description: Cells were lysed with a French press following by centrifugation to remove debris. Proteins were precipitated with 50% saturated ammonium sulfate, recovered by centrifugation, and chromatographed on Sephadex G-25 (Amersham Pharmacia Biotech) in 50 mM Tris-HCl pH 8, 10 mM NaCl, 1 mM DTT, 1 mM EDTA. The void volume was pooled and chromatographed on Q-Sepharose-FF in the same buffer, and SHP-2 was eluted with a 0-150 mM gradient of NaCl in the same buffer. Fractions were assayed, pooled, and stored as described for PTP1B.
as §1

[3] = target: T7, Human protein tyrosine phosphatase 1B (PTP1B, amino acid residues 1-321) (Homo sapiens, UniProt P18031); details: read-out: Phosphatase Inhibition Constants (Kic) PTP1B; competitive Ki, +/- S.D.; pNPP substrate
T7 sequence (P18031 1-321): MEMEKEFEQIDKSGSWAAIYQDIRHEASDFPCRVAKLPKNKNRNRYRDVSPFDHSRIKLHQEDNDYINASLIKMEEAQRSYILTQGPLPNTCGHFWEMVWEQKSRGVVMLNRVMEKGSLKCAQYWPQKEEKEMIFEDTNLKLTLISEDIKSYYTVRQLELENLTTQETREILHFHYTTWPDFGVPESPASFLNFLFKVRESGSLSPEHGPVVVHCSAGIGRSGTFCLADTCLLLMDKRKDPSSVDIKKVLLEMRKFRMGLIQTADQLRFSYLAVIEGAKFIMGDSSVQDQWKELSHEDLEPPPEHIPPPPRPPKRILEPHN
Description: Human protein tyrosine phosphatase 1B (PTP1B, amino acid residues 1-321) was expressed in E. coli BL21 (DE3). The cell paste was resuspended in 4 cell paste volumes of lysis buffer containing 100 mM MES (pH 6.5), 100 mM NaCl, 1 mM EDTA, 1 mM DTT, 1 mM PMSF, 20 U/mL Benzonase, 0.5 mg/mL lysozyme, and 1 mM MgCl2 and incubated for 35 minutes at room temperature. The cells were lysed at 11,000 psi using a Rannie homogenizer, and the homogenate was clarified in a Beckman GSA rotor at 10,000×g for 30 minutes at 4° C. […] After sample application, the column was washed with 10 column volume (CV) of the same buffer, PTP1B was eluted with a 20 CV linear gradient of 100 mM to 500 mM NaCl in the same buffer. The fractions (28 mL each) were assayed for purity by 10-20% Tris-Glycine SDS-PAGE. Fractions which contained >95% protein tyrosine phosphatase 1 B were combined. These fractions were concentrated to approximately 10 mg/mL by ultrafiltration and chromatographed on a 180 mL (1.6 cm×90 cm) Superdex 75 column in 10 mM TRIS-HCl, pH 7.5, 25 mM NaCl, 0.2 mM EDTA, 3 mM DTT. The fractions (2 mL each) were assayed for purity by 10-20% Tris-Glycine SDS-PAGE. Fractions which contained >99% protein tyrosine phosphatase 1 B were combined. Aliquots were frozen in liquid N2 and stored at −70° C. until used. Once thawed, PTP1B was stored on ice and used within 6 hours.

TCPTP [4] = target: T5, TCPTP; details: read-out: Phosphatase Inhibition Constants (Kic) TC-PTP; competitive Ki, +/- S.D.; pNPP substrate

| SMILES | Ki [1] [µM] | Ki (CD45) [µM] | Ki (LAR) [µM] | Ki (Bovine PP2B) [µM] | Ki (TCPTP [2]) [µM] | Ki (SHP-2 (full length)) [µM] | Ki [3] [µM] | Ki (TCPTP [4]) [µM] |
| --- | --- | --- | --- | --- | --- | --- | --- | --- |
| COC(=O)c1c(O)cccc1OC/C=C/c1cccc(-c2cc(C(=O)O)no2)c1 [Example 1, 5-(3-((1E)-3-(3-hydroxy-2-(methoxycarbonyl)phenoxy)prop-1-enyl)phenyl)isoxazole-3-carboxylic Acid] | > 300 | > 300 | > 300 | > 300 | 202 | > 300 | – | – |
| COC(=O)c1c(O)cccc1OC/C=C/c1ccc(F)c(-c2cc(C(=O)O)no2)c1 [Example 8, 5-(2-fluoro-5-((1E)-3-(3-hydroxy-2-(methoxycarbonyl)phenoxy)prop-1-enyl)phenyl)isoxazole-3-carboxylic Acid] | > 300 | > 300 | – | > 300 | – | > 300 | 6.9 | 164 |

From patent US20040167188A1, “Protein-tyrosine phosphatase inhibitors and uses thereof” (priority 2003, published 2004)
